Assay results published in patent publication US20240165145A1, “COMPOSITIONS AND METHODS FOR TREATING CANCER AND BIOMARKERS TO DETECT CANCER STEM CELL REPROGRAMMING AND PROGRESSION” (The Regents of the University of California, priority 2016, published 2024).

Key:
let-7 miRNA = experiment: miRNA PCR of let-7 family in CD34+ cord blood cells co-transduced with lenti-JAK2 and lenti-BCR-ABL on SL/M2 stromal cultures; assay type: cell-based, human
Procedure: Human specific RPL27 primers were used as housekeeping control. MicroRNA extraction was performed using the RNeasy Micro Kit (Qiagen) according to the manufacturer's instructions. Then 30 ng of cDNA was prepared in a reverse transcription reaction using miScript RTII™ kit (Qiagen) and served as a template for the quantification of the expression of mature miRNA of interest. Also, qRT-PCR was performed using miRNA human-specific primers and SYBR Green Kit (Qiagen). MiScript™ primers, RNU6_2 (Qiagen), were used as housekeeping control.

ADAR1 = target: T1, ADAR1 (Homo sapiens, UniProt P55265); experiment: RESSqPCR RNA editing ratio of APOBEC3D in K562 cells transduced with ADAR1 WT or ADAR1 E912A mutant; assay type: cell-based; conditions: K562 leukemic cell line, lentiviral ADAR1 WT or ADAR1 E912A
T1 construct: Full-length human adenosine deaminase, RNA-specific (ADAR1), transcript variant 1; T2A-GFP cassette of the vector pCDH-EF1-T2A-GFP (self-cleaving 2A; any remnant on ADAR1 not described); expressed in transfected cells; host or cells: K562 leukemia cells, lentiviral transduction (pCDH backbone)
T1 sequence (P55265 1-1226): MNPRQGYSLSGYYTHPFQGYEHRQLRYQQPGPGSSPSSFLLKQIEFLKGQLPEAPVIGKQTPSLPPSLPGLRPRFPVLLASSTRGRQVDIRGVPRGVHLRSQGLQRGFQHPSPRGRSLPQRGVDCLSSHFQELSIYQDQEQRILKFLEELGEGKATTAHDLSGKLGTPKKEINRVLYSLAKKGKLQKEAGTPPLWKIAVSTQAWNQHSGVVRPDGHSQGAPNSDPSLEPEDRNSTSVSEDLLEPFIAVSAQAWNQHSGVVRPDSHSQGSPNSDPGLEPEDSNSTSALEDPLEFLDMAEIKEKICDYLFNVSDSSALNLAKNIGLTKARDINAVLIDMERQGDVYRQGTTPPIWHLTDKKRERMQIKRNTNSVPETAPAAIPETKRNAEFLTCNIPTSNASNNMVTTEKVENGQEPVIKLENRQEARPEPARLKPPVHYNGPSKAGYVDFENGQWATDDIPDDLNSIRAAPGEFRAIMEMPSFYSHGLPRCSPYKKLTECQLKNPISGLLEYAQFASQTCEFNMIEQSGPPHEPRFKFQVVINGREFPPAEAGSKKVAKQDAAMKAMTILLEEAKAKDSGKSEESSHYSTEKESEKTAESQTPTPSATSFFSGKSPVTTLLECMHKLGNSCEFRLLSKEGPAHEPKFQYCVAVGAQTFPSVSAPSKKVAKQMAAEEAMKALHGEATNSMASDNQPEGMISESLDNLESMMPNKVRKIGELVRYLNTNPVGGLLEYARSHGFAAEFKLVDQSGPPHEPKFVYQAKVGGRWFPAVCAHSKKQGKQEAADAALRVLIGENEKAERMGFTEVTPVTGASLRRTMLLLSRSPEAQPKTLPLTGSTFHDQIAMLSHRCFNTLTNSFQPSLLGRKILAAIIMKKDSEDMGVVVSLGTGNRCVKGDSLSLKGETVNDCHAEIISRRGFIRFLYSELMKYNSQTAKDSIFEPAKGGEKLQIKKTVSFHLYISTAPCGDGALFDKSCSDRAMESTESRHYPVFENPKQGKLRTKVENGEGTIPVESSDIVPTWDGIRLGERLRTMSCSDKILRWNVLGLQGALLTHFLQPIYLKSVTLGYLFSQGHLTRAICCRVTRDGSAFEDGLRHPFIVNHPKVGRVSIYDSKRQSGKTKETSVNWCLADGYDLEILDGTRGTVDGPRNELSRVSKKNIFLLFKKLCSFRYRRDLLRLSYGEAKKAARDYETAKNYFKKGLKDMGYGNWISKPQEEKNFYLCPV
From the text: FIG. 5b graphically illustrates data of a RNA editing ratio of APOBEC3D by RESSqPCR in K562 leukemia cells transduced with ADAR1 WT and ADAR1E912A mutant following 8-aza treatment (n=3). The values are normalized to the editing ratio observed in pCDH control cells.
As previously described (Yildirim et al., 2013), for each RNA editing site, two sets of primers were used: one pair detecting the WT transcript (an “A” base), and one pair detecting the edited transcript containing a “G” base representing inosine substitution. The forward (FW) outer and reverse (REV) outer primers flank the editing site and can be used for Sanger sequencing validation of each editing site, and also as a qRTPCR positive control to ensure that the editing region is detectable in cDNA. The 3′ ends of the FW inner and REV inner primers match either the WT A or edited G nucleotide, and an additional mismatch was incorporated two nucleotides upstream of the 3′ primer end to enhance allelic discrimination, as previously described for quantitative detection of transcripts harboring single nucleotide genomic mutations. RESSqPCR was performed as recently described (Yildirim et al., 2013) using highly validated RNA editing site specific primers for APOBEC3D. […] Relative RNA editing rates (Relative edit/WT RNA) were calculated using the following calculation: 2^-(Ct Edit-Ct WT).

[1] = test system: BCR-ABL and JAK2 signaling; experiment: qRT-PCR of BCR-ABL and JAK2 mRNA and p-CRKL, p-STAT5a Western blot in K562 cells; assay type: cell-based, human; conditions: 8-aza at increasing concentrations
From the text: FIG. 14(a) graphically illustrates a RT-qPCR analysis of BCR-ABL and JAK2 mRNA in K562 cells transduced with pCDH vector control, lenti-ADAR1 WT, and lenti-ADAR1 mutant treated with 8-aza at increasing concentrations (n=3). FIG. 14(b) illustrates a Quantification of p-STAT5, p-CRKL, and β-actin protein expression in K562 cells transduced with pCDH vector control, lenti-ADAR1 WT, and lenti-ADAR1 mutant treated with 8-aza at increasing concentrations (n=3).

RNA editing of APOBEC3D = experiment: RESSqPCR RNA editing ratio of APOBEC3D in CD34+ cord blood cells co-transduced with lenti-JAK2 and lenti-BCR-ABL; assay type: cell-based, human; conditions: JAK2/BCR-ABL1 transduced progenitors, two weeks SL/M2 stromal co-culture; 8-Aza 10-25 nM, SAR302503 100 nM
LIN28B = LIN28B expression in CD34+ cord blood cells co-transduced with lenti-JAK2 and lenti-BCR-ABL; assay type: cell-based, human; conditions: JAK2/BCR-ABL1 transduced progenitors, two weeks SL/M2 stromal co-culture; 8-Aza 10-25 nM, SAR302503 100 nM
[2] = test system: normal CD34+ hematopoietic progenitors; experiment: Secondary colony replating of normal CD34+ progenitors after SL/M2 stromal co-culture; assay type: cell-based, human; conditions: SL/M2 stromal co-cultures; 8-Aza 10-25 nM, SAR302503 100 nM
Procedure: FIG. 5h graphically illustrates data of a percentage of secondary colonies formed after replating primary colonies from normal bone marrow or BC CD34. cells treated with different dose of 8-aza (n=3).
FIG. 5i graphically illustrates data of a percentage of secondary colonies formed after replating primary colonies from normal bone marrow or BC CML following treatment.
H5100™ media (StemCell Technologies) along with different treatment. After 2 week of culture human cells were plated, in triplicate, in Methocult™ media (StemCell Technologies) for colony-forming and replating assays.
Following lentiviral transduction or in vitro culture with SL/M2 stroma, human cells were harvested, counted by trypan blue exclusion and 100-200 cells were plated per well of a 12-well plate in Methocultmedia. After 2 weeks, total colonies were counted and replated for secondary colony-formation assay.

ADAR1 isoforms (p150) = experiment: qRT-PCR of ADAR1 expression in CD34+ cord blood cells co-transduced with lenti-JAK2 and lenti-BCR-ABL on SL/M2 stromal cultures; conditions: for ADAR1 expression: JAK2/BCR-ABL1 transduced progenitors, two weeks SL/M2 stromal co-culture, 8-Aza 10-25 nM, SAR302503 100 nM
[3] = test system: ADAR-mediated A-to-I editing activity in K562 leukemia cells co-transduced with lenti-ADAR1 and lenti-JAK2; experiment: Dual luciferase reporter assay of ADAR-specific RNA editing activity in K562 cells; assay type: cell-based, human; conditions: SAR302503 100 nM or 300 nM, 3 hrs
[4] = JAK2/BCR-ABL1 transduced progenitors, two weeks SL/M2 stromal co-culture, 8-Aza 10-25 nM, SAR302503 100 nM
[5] = JAK2/BCR-ABL1 transduced normal CD34+ progenitors, SAR302503 100 nM and 600 nM on SL/M2 stromal cultures

Row | SMILES | let-7 miRNA biogenesis (let-7 miRNA; [4]) | ADAR1's adenosine-to-inosine (A-to-I) editing activity (ADAR1) | effect on BCR-ABL and JAK2 signaling (qRT-PCR, p-CRKL and p-STAT5a Western blot) [1] | RNA editing activity (APOBEC3D RESSqPCR) (RNA editing of APOBEC3D) | LIN28B expression (LIN28B) | self renewal capacity of normal CD34+ hematopoietic progenitors [2] | ADAR1 expression (ADAR1 isoforms (p150)) | RNA editing activity (luciferase reporter) [3] | let-7 miRNA biogenesis (let-7 miRNA; [5]) | ADAR1 p150 isoform expression (ADAR1 isoforms (p150); [5])
1 | Nc1ncnc2c1nnn2[C@@H]1O[C@H](CO)[C@@H](O)[C@H]1O [8-aza, 8-azaadenosine] | restored let-7 miRNA biogenesis | reduced ADAR1's adenosine-to-inosine (A-to-I) editing activity | no effect on BCR-ABL and JAK2 signaling | reduction | reduction | not significantly impaired | reduction in ADAR1 expression | – | – | –
2 | Cc1cnc(Nc2ccc(OCCN3CCCC3)cc2)nc1Nc1cccc(S(=O)(=O)NC(C)(C)C)c1 [SAR302503, N-tert-Butyl-3-{5-methyl-2-[4-(2-pyrrolidin-1-yl-ethoxy)-phenylamino]-pyrimidin-4-ylamino}-benzenesulfonamide] | restored let-7 miRNA biogenesis | – | – | reduction | reduction | – | reduction in ADAR1 expression | reversed RNA editing activity in a dose dependent manner | restored let-7 miRNA biogenesis in a dose-dependent manner | reduced ADAR1 p150 isoform expression
